What was measured:
G. mellonella larvae = assay: Insecticidal activity by injection into larvae; assay type: in vivo, Galleria mellonella; details: ethanol injected as positive control, after 5 days
Method: Insecticidal activity was determined using fourth and fifth instar G. mellonella larvae (L4/L5) obtained from Fauna Topics Zoobedarf Zucht und Handels GmbH (Marbach am Neckar, Germany). Because spider venom is injected via chelicerae, we opted for an injection-based assay to reflect the natural process of envenomation as described earlier. The peptides were dissolved in a 1:1 mixture of DMSO and water to a final concentration of 10 mmol/L. We injected 50 ng of each peptide into the pseudopodium using Omnican-F, 0.30 × 12 mm/G 30 × 1/2”, a 1 mL syringe adjusted to a WPI manual microsyringe injector setup. Injections with water, DMSO/water (1:1) and ethanol (90%) were used as controls, alongside untreated specimens. Insecticidal activity screenings were performed in cohorts of 10 larvae with 3 replicates (30 specimens per treatment or control). […] Survival was monitored every 24 h for 5 days. Mortality was calculated based on the ratio of dead to injected specimens.

[1] = test system: Staphylococcus aureus DSM 2569; assay: Antibacterial growth assay (OD600); details: for Bacterial growth relative to medium, S. aureus, replicate 1 / Bacterial growth relative to medium, S. aureus, replicate 2 / Bacterial growth relative to medium, S. aureus, replicate 3: OD600, medium = 100, MH II broth, 37 °C, peptide 200 µM mixed 50 µL + 50 µL with bacteria, Figure 7: 48 h; for Bacterial growth relative to medium, S. aureus, replicate 1: replicate column 1; for Bacterial growth relative to medium, S. aureus, replicate 2: replicate column 2; for Bacterial growth relative to medium, S. aureus, replicate 3: replicate column 3; for Antibacterial activity (in words): S. aureus DSM 2569, growth after 48 h
Method: (§1) Cryo-conserved cultures of selected bacterial strains (Table 4) were transferred to Tryptic Soy Agar (TSA) plates (Carl Roth) with a sterile inoculation loop, sealed with Parafilm (BEMIS, Neenah, WI, USA), and incubated for 1–2 days at 37 °C depending on growth. Single colonies were picked and transferred into 2–3 mL of the Mueller–Hinton II (MH II) broth (BD, Heidelberg, Germany). The bacteria were cultivated overnight, subcultured on fresh medium and grown for 3–4 h before testing at 37 °C, with shaking at 180 rpm. We measured the optical density at 600 nm (OD600) of 1 mL of the bacterial suspensions in polystyrene cuvettes (SARSTED, Nümbrecht, Germany) using an Ultrospec 10 spectrophotometer (Biochrome, Cambridge, UK). We then diluted them with the MH II medium to the preferred OD600 (Table 2). The peptides were dissolved in DMSO to generate 10 mmol/L stocks and diluted with the MH II medium to 200 µM before the assay. We used 10 µg/mL (~40 µg/mL for S. epidermidis) gentamicin and colistin (Sigma-Aldrich, Taufkirchen, Germany), DMSO and the medium only as controls. The bacteria were transferred to 96-multiwell plates with a final volume of 100 µL per well (50 µL bacterial suspension, and 50 µL test peptide). The OD600 was measured at 0, 24 and 48 h using a BioTek Eon microplate reader followed by analysis with Gen5 v2.09.

[2] = test system: panel of seven bacterial strains; assay: Antibacterial growth assay (OD600), statements on the whole panel; assay type: cell-based; details: growth after 48 h
A/Hamburg/05/2009 (H1N1) = assay type: cell-based, influenza virus
[3] = test system: Micrococcus luteus DSM 20030; assay: Antibacterial growth assay (OD600); details: for Antibacterial activity (in words): M. luteus DSM 20030, growth after 48 h; for Bacterial growth relative to medium, M. luteus, replicate 1 / Bacterial growth relative to medium, M. luteus, replicate 2 / Bacterial growth relative to medium, M. luteus, replicate 3: OD600, medium = 100, MH II broth, 37 °C, peptide 200 µM mixed 50 µL + 50 µL with bacteria, Figure 7: 48 h; for Bacterial growth relative to medium, M. luteus, replicate 1: replicate column 1; for Bacterial growth relative to medium, M. luteus, replicate 2: replicate column 2; for Bacterial growth relative to medium, M. luteus, replicate 3: replicate column 3
Method: as §1

[4] = test system: Staphylococcus epidermidis DSM 28319; assay: Antibacterial growth assay (OD600); details: for Bacterial growth relative to medium, S. epidermidis, replicate 1 / Bacterial growth relative to medium, S. epidermidis, replicate 2 / Bacterial growth relative to medium, S. epidermidis, replicate 3: OD600, medium = 100, MH II broth, 37 °C, peptide 200 µM mixed 50 µL + 50 µL with bacteria, Figure 7: 48 h; for Bacterial growth relative to medium, S. epidermidis, replicate 1: replicate column 1; for Bacterial growth relative to medium, S. epidermidis, replicate 2: replicate column 2; for Bacterial growth relative to medium, S. epidermidis, replicate 3: replicate column 3; for Antibacterial activity (in words): S. epidermidis DSM 28319, growth after 48 h
Method: as §1

[5] = test system: Pseudomonas aeruginosa DSM 1117; assay: Antibacterial growth assay (OD600); details: OD600, medium = 100, MH II broth, 37 °C, peptide 200 µM mixed 50 µL + 50 µL with bacteria, Figure 7: 48 h; for Bacterial growth relative to medium, P. aeruginosa (1117), replicate 1: replicate column 1; for Bacterial growth relative to medium, P. aeruginosa (1117), replicate 2: replicate column 2; for Bacterial growth relative to medium, P. aeruginosa (1117), replicate 3: replicate column 3
[6] = test system: Pseudomonas aeruginosa DSM 50071; assay: Antibacterial growth assay (OD600); details: OD600, medium = 100, MH II broth, 37 °C, peptide 200 µM mixed 50 µL + 50 µL with bacteria, Figure 7: 48 h; for Bacterial growth relative to medium, P. aeruginosa (50071), replicate 1: replicate column 1; for Bacterial growth relative to medium, P. aeruginosa (50071), replicate 2: replicate column 2; for Bacterial growth relative to medium, P. aeruginosa (50071), replicate 3: replicate column 3
Method: as §1

[7] = test system: Escherichia coli BL21(DE3); assay: Antibacterial growth assay (OD600); details: for Antibacterial activity (in words): E. coli BL21(DE3), growth after 48 h; for Bacterial growth relative to medium, E. coli, replicate 1 / Bacterial growth relative to medium, E. coli, replicate 2 / Bacterial growth relative to medium, E. coli, replicate 3: OD600, medium = 100, MH II broth, 37 °C, peptide 200 µM mixed 50 µL + 50 µL with bacteria, Figure 7: 48 h; for Bacterial growth relative to medium, E. coli, replicate 1: replicate column 1; for Bacterial growth relative to medium, E. coli, replicate 2: replicate column 2; for Bacterial growth relative to medium, E. coli, replicate 3: replicate column 3
[8] = test system: B/Malaysia/2506/2004 (B-Mal); assay type: cell-based, influenza virus
[9] = test system: Listeria monocytogenes DSM 20600; assay: Antibacterial growth assay (OD600); details: for Antibacterial activity (in words): L. monocytogenes DSM 20600, growth after 48 h; for Bacterial growth relative to medium, L. monocytogenes, replicate 1 / Bacterial growth relative to medium, L. monocytogenes, replicate 2 / Bacterial growth relative to medium, L. monocytogenes, replicate 3: OD600, medium = 100, MH II broth, 37 °C, peptide 200 µM mixed 50 µL + 50 µL with bacteria, Figure 7: 48 h; for Bacterial growth relative to medium, L. monocytogenes, replicate 1: replicate column 1; for Bacterial growth relative to medium, L. monocytogenes, replicate 2: replicate column 2; for Bacterial growth relative to medium, L. monocytogenes, replicate 3: replicate column 3
Method: as §1

A/Hessen/1/2003 (H3N2) = assay type: cell-based, influenza virus

Molecule | Bacterial growth relative to medium, S. aureus, replicate 1 [1] | Bacterial growth relative to medium, S. aureus, replicate 2 [1] | Bacterial growth relative to medium, S. aureus, replicate 3 [1] | Antibacterial activity over the panel (in words) [2] | Viability of infected cells relative to aprotinin, Replicate 1 (A/Hamburg/05/2009 (H1N1)) | Viability of infected cells relative to aprotinin, Replicate 2 (A/Hamburg/05/2009 (H1N1)) | Viability of infected cells relative to aprotinin, Replicate 3 (A/Hamburg/05/2009 (H1N1)) | Bacterial growth relative to medium, M. luteus, replicate 1 [3] | Bacterial growth relative to medium, M. luteus, replicate 2 [3] | Bacterial growth relative to medium, M. luteus, replicate 3 [3] | Bacterial growth relative to medium, S. epidermidis, replicate 1 [4] | Bacterial growth relative to medium, S. epidermidis, replicate 2 [4] | Bacterial growth relative to medium, S. epidermidis, replicate 3 [4] | Bacterial growth relative to medium, P. aeruginosa (1117), replicate 1 [5] | Bacterial growth relative to medium, P. aeruginosa (1117), replicate 2 [5] | Bacterial growth relative to medium, P. aeruginosa (1117), replicate 3 [5] | Bacterial growth relative to medium, P. aeruginosa (50071), replicate 1 [6] | Bacterial growth relative to medium, P. aeruginosa (50071), replicate 2 [6] | Bacterial growth relative to medium, P. aeruginosa (50071), replicate 3 [6] | Bacterial growth relative to medium, E. coli, replicate 1 [7] | further results
CCO [EtOH, ethanol, reference compound] | – | – | – | – | – | – | – | – | – | – | – | – | – | – | – | – | – | – | – | – | Mortality (G. mellonella larvae): up to 50%
SLLGLLDVVKNTVGQ [LS-AMP-A11] | 50.8023 | 58.8947 | 79.7231 | inhibited the growth of most of the bacteria except two | 0.05004 | 0.04235 | 0.04417 | 56.0386 | 92.3422 | 31.1812 | 49.2953 | 44.2655 | 33.4715 | 82.0725 | 95.9276 | 84.5049 | 97.4528 | 114.818 | 88.0117 | 64.587 | Antibacterial activity (in words) [1]: able to decrease the growth; Viability of infected cells relative to aprotinin, Replicate 4 (A/Hamburg/05/2009 (H1N1); […], replicate 4 (additional internal control)): 0.03789; Viability of infected cells relative to aprotinin, Replicate 5 (A/Hamburg/05/2009 (H1N1); […], replicate 5 (additional internal control)): 0.01667; Antibacterial activity (in words) [3]: able to decrease the growth; Antibacterial activity (in words) [4]: able to decrease the growth; Antibacterial activity (in words) [7]: able to decrease the growth; Bacterial growth relative to medium, E. coli, replicate 2 [7]: 63.905; Bacterial growth relative to medium, E. coli, replicate 3 [7]: 36.8825; Viability of infected cells relative to aprotinin, Replicate 1 [8]: 0.04707; Viability of infected cells relative to aprotinin, Replicate 2 [8]: 0.04802; Viability of infected cells relative to aprotinin, Replicate 3 [8]: 0.0552; Antibacterial activity (in words) [9]: able to decrease the growth; Bacterial growth relative to medium, L. monocytogenes, replicate 1 [9]: 57.2028; Bacterial growth relative to medium, L. monocytogenes, replicate 2 [9]: 67.6393; Bacterial growth relative to medium, L. monocytogenes, replicate 3 [9]: 84.2183; Viability of infected cells relative to aprotinin, Replicate 1 (A/Hessen/1/2003 (H3N2)): 0.1919; Viability of infected cells relative to aprotinin, Replicate 2 (A/Hessen/1/2003 (H3N2)): 0.09823; Viability of infected cells relative to aprotinin, Replicate 3 (A/Hessen/1/2003 (H3N2)): 0.08306
SLLGLLDVVKNTVGQTG [LS-AMP-A9] | 57.4133 | 67.8221 | 95.0991 | inhibited the growth of most of the bacteria except two | 0.04771 | 0.03968 | 0.02362 | 52.4959 | 91.4416 | 32.7594 | 52.3672 | 52.2824 | 65.3172 | 56.3665 | 70.6926 | 77.8728 | 97.5053 | 110.589 | 87.613 | 70.1329 | Antibacterial activity (in words) [1]: able to decrease the growth; Antibacterial activity (in words) [3]: able to decrease the growth; Antibacterial activity (in words) [4]: able to decrease the growth; Antibacterial activity (in words) [7]: able to decrease the growth; Bacterial growth relative to medium, E. coli, replicate 2 [7]: 70.7996; Bacterial growth relative to medium, E. coli, replicate 3 [7]: 35.5653; Viability of infected cells relative to aprotinin, Replicate 1 [8]: 0.09007; Viability of infected cells relative to aprotinin, Replicate 2 [8]: 0.06966; Viability of infected cells relative to aprotinin, Replicate 3 [8]: 0.05846; Antibacterial activity (in words) [9]: able to decrease the growth; Bacterial growth relative to medium, L. monocytogenes, replicate 1 [9]: 56.5719; Bacterial growth relative to medium, L. monocytogenes, replicate 2 [9]: 67.4623; Bacterial growth relative to medium, L. monocytogenes, replicate 3 [9]: 66.1408; Viability of infected cells relative to aprotinin, Replicate 1 (A/Hessen/1/2003 (H3N2)): 0.1782; Viability of infected cells relative to aprotinin, Replicate 2 (A/Hessen/1/2003 (H3N2)): 0.2232; Viability of infected cells relative to aprotinin, Replicate 3 (A/Hessen/1/2003 (H3N2)): 0.05605
SLLGLLDVVKNTVGQTGLL [LS-AMP-A8] | 67.0732 | 73.4467 | 85.2226 | inhibited the growth of most of the bacteria except two | 0.02555 | 0.01502 | 0.01283 | 72.2222 | 103.716 | 73.0273 | 79.7615 | 73.3026 | 77.5582 | 76.1322 | 81.7612 | 75.3667 | 99.79 | 113.132 | 91.0686 | 91.7388 | Antibacterial activity (in words) [3]: no activity; Bacterial growth relative to medium, E. coli, replicate 2 [7]: 101.043; Bacterial growth relative to medium, E. coli, replicate 3 [7]: 53.4577; Viability of infected cells relative to aprotinin, Replicate 1 [8]: 0.03065; Viability of infected cells relative to aprotinin, Replicate 2 [8]: 0.0169; Viability of infected cells relative to aprotinin, Replicate 3 [8]: 0.06181; Bacterial growth relative to medium, L. monocytogenes, replicate 1 [9]: 57.9391; Bacterial growth relative to medium, L. monocytogenes, replicate 2 [9]: 71.2645; Bacterial growth relative to medium, L. monocytogenes, replicate 3 [9]: 69.2971; Viability of infected cells relative to aprotinin, Replicate 1 (A/Hessen/1/2003 (H3N2)): 0.08185; Viability of infected cells relative to aprotinin, Replicate 2 (A/Hessen/1/2003 (H3N2)): 0.1031; Viability of infected cells relative to aprotinin, Replicate 3 (A/Hessen/1/2003 (H3N2)): 0.0008759
SLLGLLDVVKSKVGQTGLL [LS-AMP-A18] | 75 | 66.2525 | 80.9203 | largely inactive | 0.03159 | 0.03911 | 0.01637 | 143.237 | 115.766 | 65.7102 | 95.0126 | 84.2348 | 89.1297 | 87.8796 | 68.3606 | 68.2151 | 102.836 | 105.708 | 87.0813 | 110.572 | Bacterial growth relative to medium, E. coli, replicate 2 [7]: 96.6395; Bacterial growth relative to medium, E. coli, replicate 3 [7]: 68.0936; Viability of infected cells relative to aprotinin, Replicate 1 [8]: 0.06546; Viability of infected cells relative to aprotinin, Replicate 2 [8]: 0.04295; Viability of infected cells relative to aprotinin, Replicate 3 [8]: 0.0512; Bacterial growth relative to medium, L. monocytogenes, replicate 1 [9]: 145.215; Bacterial growth relative to medium, L. monocytogenes, replicate 2 [9]: 105.128; Bacterial growth relative to medium, L. monocytogenes, replicate 3 [9]: 13.7733; Viability of infected cells relative to aprotinin, Replicate 1 (A/Hessen/1/2003 (H3N2)): 0.1207; Viability of infected cells relative to aprotinin, Replicate 2 (A/Hessen/1/2003 (H3N2)): 0.1378

Source: article PMC10221074, “Functional Profiling of the A-Family of Venom Peptides from the Wolf Spider Lycosa shansia” (Toxins, 2023)
